Measured values reported in US9975917B1, “Pentacyclic triterpenoidal derivatives” (KING SAUD UNIVERSITY, priority 2017, dated 2018).

Experiments:
5-Lipoxygenase [1] = target: T1, 5-Lipoxygenase (Rattus norvegicus, UniProt P12527); experiment: 5-LOX product formation from endogenous arachidonic acid in ionophore-stimulated intact rat PMNL (System A); type: cell-based; conditions: ionophore A23187 and Ca2+, 37° C. 5 min, means±standard deviation, n=6
T1 construct: from 20 μM exogenous substrate in 105.000 g supernatants of rat PMNL (System B); from tissue; host or cells: 105,000 g supernatant of sonicated peritoneal PMNL of Wistar rats
T1 sequence (P12527 1-673): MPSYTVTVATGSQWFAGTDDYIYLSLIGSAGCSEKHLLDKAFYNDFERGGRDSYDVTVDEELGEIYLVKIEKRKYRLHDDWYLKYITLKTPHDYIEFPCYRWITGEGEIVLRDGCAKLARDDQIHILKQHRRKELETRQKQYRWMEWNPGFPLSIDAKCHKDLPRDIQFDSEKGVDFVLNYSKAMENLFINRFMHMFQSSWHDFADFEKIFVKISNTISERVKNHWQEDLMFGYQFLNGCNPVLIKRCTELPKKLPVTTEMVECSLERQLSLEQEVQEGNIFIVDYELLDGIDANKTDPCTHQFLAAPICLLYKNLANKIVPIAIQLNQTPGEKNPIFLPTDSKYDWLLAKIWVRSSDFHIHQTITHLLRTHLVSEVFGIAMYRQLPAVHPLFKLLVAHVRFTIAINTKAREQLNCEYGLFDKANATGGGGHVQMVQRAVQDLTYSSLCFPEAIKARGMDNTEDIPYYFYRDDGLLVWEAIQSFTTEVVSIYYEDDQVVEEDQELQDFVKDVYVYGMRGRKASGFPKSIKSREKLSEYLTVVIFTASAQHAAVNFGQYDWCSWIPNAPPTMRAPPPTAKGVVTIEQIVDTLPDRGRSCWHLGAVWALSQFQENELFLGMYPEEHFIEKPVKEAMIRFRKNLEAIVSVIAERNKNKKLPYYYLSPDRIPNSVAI
Method: (§1) Glycogen-elicited rat peritoneal PMNL were collected 4 hours after the injection of a glycogen solution (5%) in Dulbecco's phosphate-buffered saline (PBS) into the peritoneum of 300-350 g Wistar rats. The washed cells (>90% PMNL) were lysed at 2×10^7 cells mL^−1 by sonication (3×5 s, digital Sonifier) in PBS containing 1 mm EDTA, and were subjected to sequential centrifugation at 10,000 and 105,000 g for 10 and 60 min (4° C.), respectively. Freshly obtained PMNL suspensions and aliquots of the 105,000 g supernatants were assayed for 5-lipoxygenase activity.
(§2) For 5-lipoxygenase product formation from endogenous arachidonic acid, glycogen-elicited rat peritoneal PMNL (1×10^7 cells) were stimulated at 37° C. for 5 min by ionophore A23187 and Ca^2+. The 5-lipoxygenase activity in the cell-free system was tested in aliquots (corresponding to 1×10^7 cells) of the 105,000 g supernatant fraction of rat PMNL in the presence of 1 mm ATP, 1.8 mM CaCl2, 1 mM EDTA, and 20 μM arachidonic acid at 37° C. for 5 min. In both intact cells and cell-free tests, the incubations were terminated by cooling to 4° C. and acidification to pH of 3 with formic acid. For inhibition studies, the test compounds dissolved in dimethyl sulphoxide (DMSO) were added 5 min prior to initiation.
(§3) Inhibitors and non-inhibitory pentacyclic triterpenes were added simultaneously. All incubations, including controls, were carried out in the presence of 0.5% DMSO. The 5-lipoxygenase products were quantified after the addition of 170 ng PGB2 as an internal standard by extraction, with RP-HPLC separation and ultraviolet detection of products. With intact rat PMNL and the 105,000 g supernatant fraction the main products from arachidonic acid of 5 min incubations were leukotriene B4 (LTB4), 6-trans-LTB4, 12-epi-6-trans-LTB4 and 5-HETE along with negligible amounts of 5(S), 12(S)-diHETE.
(§4) FIG. 2 is a graph showing the effects of the pentacyclic triterpenoidal derivatives on 5-Lox product formation for System A. FIG. 3 is a graph showing the effects of the pentacyclic triterpenoidal derivatives on 5-Lox product formation for System B. Inhibition concentrations (IC50) of the biological effect of each of the compounds were determined after logit-log transformation of the data for each experiment. Data of independent observations (n=6) are shown as means±standard deviation.

5-Lipoxygenase [2] = target: T1, 5-Lipoxygenase; experiment: 5-LOX product formation from 20 μM exogenous substrate in 105,000 g supernatants of rat PMNL, cell-free (System B); type: biochemical; conditions: cell-free 105,000 g supernatant of rat PMNL, 20 μM arachidonic acid, 1 mM ATP, 1.8 mM CaCl2, 37° C. 5 min; means±standard deviation, n=6
Method: as §1, §2, §3, §4

Row | Structure (SMILES) | IC50 (5-Lipoxygenase [1]) | IC50 (5-Lipoxygenase [2]) | melting point
1 | CC1CCC2(C)CCC3(C)C(=CC(=O)C4C5(C)CCC(O)C(C)(C(=O)O)C5CCC43C)C2C1C (stereo not drawn) [11-keto-β-boswellic acid/1, 11-keto-β-boswellic acid, reference compound] | 2.8 µM | 14.6 µM | 
2 | CC(=O)O[C@@H]1CC[C@@]2(C)[C@@H](CC[C@]3(C)[C@@H]2C(=O)C=C2[C@@H]4[C@@H](C)[C@H](C)CC[C@]4(C)CC[C@]23C)[C@@]1(C)C(=O)O [AKBA, Acetyl-11-keto-β-boswellic acid, reference compound] | 1.5 µM | 7 µM | 
3 | CC1CCC2(C)CCC3(C)C(=CC(=O)C4C5(C)CCC(=O)C(C)(C(=O)Cl)C5CCC43C)C2C1C (stereo not drawn) [Compound 3, 3,11-dioxo-urs-12-en-24β-acid chloride] | 0.19 µM | 0.34 µM | 
4 | CC1CCC2(C)CCC3(C)C(=CC(=O)C4C5(C)CCC(=O)C(C)(C(=O)c6ccccc6)C5CCC43C)C2C1C (centres unmarked) [Compound 4, 3,11-dioxo-24(phenyl)-urs-12-en-24-one] | 0.078 µM | 0.098 µM | 300 °C
5 | CC1CCC2(C)CCC3(C)C(=CC(=O)C4C5(C)CCC(=O)C(C)(c6ccccc6)C5CCC43C)C2C1C (centres unmarked) [Compound 5, 24-norurs-12-en-24(phenyl)-3,11-dione] | 0.17 µM | 0.28 µM | 256 °C
6 | CC1CCC2(C)CCC3(C)C(=CC(=O)C4C5(C)C=CC(=O)C(C)(C(=O)c6ccccc6)C5CCC43C)C2C1C (centres unmarked) [Compound 6, 3,11-dioxo-24(Phenyl)-urs-1,12-diene-24-one] | 0.021 µM | 0.044 µM | 
7 | CC1CCC2(C)CCC3(C)C(=CC(=O)C4C5(C)C=CC(=O)C(C)(c6ccccc6)C5CCC43C)C2C1C (centres unmarked) [Compound 7, 24-nor-urs-1,12-diene-24(phenyl)-3,11-dione] | 0.12 µM | 0.24 µM | 267 °C
